Earlier results on 78 compounds are cited in article PMC12697872, “Rethinking the AI Paradigm for Solubility Prediction of Drug‑Like Compounds with Dual‐Perspective Modeling and Experimental Validation” (Advanced Science, 2025).

Where two headings read alike, the source gives them in different places.

For this data set the following is noted: experimental aqueous solubility as logS, cited from earlier work.
[1] abbreviates: sheet "DrugBank", ref DrugBank database.
The mark [2] stands for this setting: sheet "DrugBank" of Supplement 2, ref DrugBank.

Consider `NNC(=O)c1ccncc1` [Isoniazid], for which the ex_logS under setting [1] was 0.008966.
Take `c1ccc2cnccc2c1` [Isoquinoline]: the ex_logS under setting [2] was -1.456.
As for `O=[N+]([O-])O[C@H]1CO[C@H]2[C@@H]1OC[C@H]2O[N+](=O)[O-]` [Isosorbide dinitrate], the ex_logS under setting [2] is -2.6328.
As for `CC1=C(/C=C/C(C)=C/C=C/C(C)=C\C(=O)O)C(C)(C)CCC1` [Isotretinoin], under setting [1], the ex_logS is listed as -4.799.
Regarding `CCn1c(=O)c2c(nc(/C=C/c3ccc(OC)c(OC)c3)n2C)n(CC)c1=O` [Istradefylline], the ex_logS under setting [1] was -5.886.
As for `Nc1ccn([C@@H]2CS[C@H](CO)O2)c(=O)n1` [Lamivudine], the ex_logS under setting [2] is on record as -0.5152.
For `Nc1nnc(-c2cccc(Cl)c2Cl)c(N)n1` [Lamotrigine], under setting [1], the ex_logS is -3.178.
As for `Cc1c(OCC(F)(F)F)ccnc1C[S+]([O-])c1nc2ccccc2[nH]1` (stereo not drawn) [Lansoprazole], the ex_logS under setting [1] is reported as -5.581.
For `CCCCCCCCCCCC(=O)O` [Lauric acid], under setting [2], the ex_logS is reported as -4.62.
For `Cc1oncc1C(=O)Nc1ccc(C(F)(F)F)cc1` [Leflunomide], under setting [1], the ex_logS was -4.109.
As to `CC[C@@H](C(N)=O)N1CCCC1=O` [Levetiracetam], the ex_logS under setting [1] was 0.786.
For the compound `N[C@@H](Cc1ccc(O)c(O)c1)C(=O)O` [Levodopa], the ex_logS under setting [2] is -2.299.
Turning to `CN1c2c(nc(N)[nH]c2=O)NC[C@@H]1CNc1ccc(C(=O)N[C@@H](CCC(=O)O)C(=O)O)cc1` [Levomefolic acid], under setting [2], the ex_logS is -3.185.
In the case of `CC(C)[C@@H]1CC[C@@H](C)C[C@H]1O` [Levomenthol], the ex_logS under setting [2] is -2.504.
Consider `N[C@@H](Cc1cc(I)c(Oc2cc(I)c(O)c(I)c2)c(I)c1)C(=O)O` [Levothyroxine], for which the ex_logS under setting [1] was -3.869.
For `Cl[C@H]1[C@H](Cl)[C@@H](Cl)[C@@H](Cl)[C@H](Cl)[C@H]1Cl` [Lindane], under setting [2], the ex_logS was -4.6.
For the compound `O=NN(CCCl)C(=O)NC1CCCCC1` [Lomustine], the ex_logS under setting [1] is reported as -3.323.
Take `CC[C@H](C)C(=O)O[C@H]1C[C@@H](C)C=C2C=C[C@H](C)[C@H](CC[C@@H]3C[C@@H](O)CC(=O)O3)[C@H]21` [Lovastatin]: the ex_logS under setting [1] is recorded as -6.0049.
On to `O=C(O)CC(=O)O` [Malonic acid], for which the ex_logS under setting [2] is 0.8652.
For the compound `OC[C@@H](O)[C@@H](O)[C@H](O)[C@H](O)CO` [Mannitol], the ex_logS under setting [1] was 0.07397.
As for `CCC(C)C(C)(COC(N)=O)COC(N)=O` (stereo not drawn) [Mebutamate], under setting [1], the ex_logS is reported as -2.366.
Take `CC(=O)[C@@]1(C)CC[C@H]2[C@@H]3C=C(C)C4=CC(=O)CC[C@]4(C)[C@H]3CC[C@@]21C` [Medrogestone]: under setting [2], the ex_logS is -5.277.
In the case of `Cc1cnc(NC(=O)C2=C(O)c3ccccc3S(=O)(=O)N2C)s1` [Meloxicam], the ex_logS under setting [1] is reported as -4.467.
`Cc1cccc(C)c1NC(=O)C1CCCCN1C` (stereo not drawn) [Mepivacaine]: the ex_logS under setting [2] is on record as -1.991.
With `CCCC(C)(COC(N)=O)COC(N)=O` [Meprobamate], the ex_logS under setting [2] is -1.667.
For the compound `S=c1[nH]cnc2nc[nH]c12` [Mercaptopurine], the ex_logS under setting [2] is -3.089.
In the case of `CC(=O)/N=c1/sc(S(N)(=O)=O)nn1C` [Methazolamide], the ex_logS under setting [1] is listed as -1.829.
For `CN1CCC(CN2c3ccccc3Sc3ccccc32)C1` (stereo not drawn) [Methdilazine], the ex_logS under setting [1] was -5.93.
As to `CSCC[C@H](N)C(=O)O` [Methionine], under setting [2], the ex_logS is listed as -0.421.
For `COc1ccccc1OCC(O)COC(N)=O` (stereo not drawn) [Methocarbamol], under setting [1], the ex_logS is recorded as -0.9845.
On to `COc1ccc2c(c1)N(C[C@H](C)CN(C)C)c1ccccc1S2` [Methotrimeprazine], for which the ex_logS under setting [1] was -4.215.
With `C[C@](N)(Cc1ccc(O)c(O)c1)C(=O)O` [Methyldopa], under setting [1], the ex_logS is reported as -1.325.
Turning to `CC(C(=O)O)C(=O)O` [Methylmalonic Acid], the ex_logS under setting [2] is given as 0.7597.
For the compound `COC(=O)C(c1ccccc1)C1CCCCN1` (stereo not drawn) [Methylphenidate], the ex_logS under setting [1] is -2.269.
Turning to `C[C@]12CCC(=O)C=C1CC[C@@H]1[C@@H]2CC[C@@]2(C)[C@H]1CC[C@]2(C)O` [Methyltestosterone], the ex_logS under setting [1] is -3.95.
For `CCC1(CC)C(=O)NCC(C)C1=O` (stereo not drawn) [Methyprylon], the ex_logS under setting [1] is -1.202.
With `CC(=O)Oc1c(C)cc(OCC(O)CNC(C)C)c(C)c1C` (stereo not drawn) [Metipranolol], under setting [2], the ex_logS is recorded as -2.72.
Take `Cc1ccccc1N1C(=O)c2cc(S(N)(=O)=O)c(Cl)cc2NC1C` (stereo not drawn) [Metolazone]: the ex_logS under setting [2] is on record as -3.783.
Regarding `Nc1nc(CC(=O)Nc2ccc(CCNC[C@H](O)c3ccccc3)cc2)cs1` [Mirabegron], the ex_logS under setting [1] is -3.684.
For the compound `Clc1ccc(C(c2ccccc2Cl)C(Cl)Cl)cc1` (stereo not drawn) [Mitotane], the ex_logS under setting [1] is given as -6.505.
Consider `Oc1ccc(OCc2ccccc2)cc1` [Monobenzone], for which, under setting [1], the ex_logS was -2.902.
Consider `CCOC(=O)Nc1ccc2c(c1)N(C(=O)CCN1CCOCC1)c1ccccc1S2` [Moricizine], for which the ex_logS under setting [1] was -5.971.
Consider `COc1c(C)c2c(c(O)c1C/C=C(\C)CCC(=O)OCCN1CCOCC1)C(=O)OC2` [Mycophenolate mofetil], for which, under setting [2], the ex_logS is on record as -4.004.
Consider `CCCCC(=O)O` [N-Valeric Acid], for which the ex_logS under setting [1] is listed as -0.6289.
On to `CC(C)(C)NCC(O)COc1cccc2c1CC(O)C(O)C2` (stereo not drawn) [Nadolol], for which, under setting [2], the ex_logS was -1.57.
Turning to `OC[C@H]1O[C@@H](n2cnc3cncnc32)[C@H](O)[C@@H]1O` [Nebularine], the ex_logS under setting [1] was -0.4018.
As for `CCCc1c2oc(C(=O)O)cc(=O)c2cc2c(=O)cc(C(=O)O)n(CC)c12` [Nedocromil], under setting [1], the ex_logS is listed as -3.4084.
Turning to `O=C(O)c1cccnc1` [Niacin], the ex_logS under setting [1] was -0.835.
As to `COC(=O)C1=C(C)NC(C)=C(C(=O)OCCN(C)Cc2ccccc2)C1c1cccc([N+](=O)[O-])c1` (stereo not drawn) [Nicardipine], under setting [1], the ex_logS is given as -5.338.
As for `NC(=O)c1cccnc1` [Nicotinamide], the ex_logS under setting [2] is recorded as 0.6122.
With `O=C(O)c1cccnc1Nc1cccc(C(F)(F)F)c1` [Niflumic acid], the ex_logS under setting [1] is given as -4.172.
For the compound `NC(=O)N/N=C/c1ccc([N+](=O)[O-])o1` [Nitrofural], under setting [1], the ex_logS is -2.975.
Regarding `O=C1CN(/N=C/c2ccc([N+](=O)[O-])o2)C(=O)N1` [Nitrofurantoin], the ex_logS under setting [2] was -3.4765.
In the case of `CNCCC=C1c2ccccc2CCc2ccccc21` [Nortriptyline], under setting [1], the ex_logS was -5.481.
In the case of `COc1ccc2[nH]c([S+]([O-])Cc3ncc(C)c(OC)c3C)nc2c1` (stereo not drawn) [Omeprazole], the ex_logS under setting [1] is -2.983.
`CC(C)NCC(O)c1cc(O)cc(O)c1` (stereo not drawn) [Orciprenaline]: under setting [2], the ex_logS is given as -4.338.
Turning to `CN[C@H](CC(C)C)C(=O)N[C@H]1C(=O)N[C@@H](CC(N)=O)C(=O)N[C@H]2C(=O)N[C@H]3C(=O)N[C@H](C(=O)N[C@H](C(=O)O)c4cc(O)cc(O)c4-c4cc3ccc4O)[C@H](O[C@H]3C[C@](C)(N)[C@@H](O)[C@H](C)O3)c3ccc(c(Cl)c3)Oc3cc2cc(c3O[C@@H]2O[C@H](CO)[C@@H](O)[C@H](O)[C@H]2O[C@H]2C[C@](C)(NCc3ccc(-c4ccc(Cl)cc4)cc3)[C@@H](O)[C@H](C)O2)Oc2ccc(cc2Cl)[C@H]1O` [Oritavancin], under setting [1], the ex_logS is listed as -2.2536.
In the case of `C[C@@H]1O[C@@H](O[C@H]2C[C@@H](O)[C@]3(CO)[C@H]4[C@H](O)C[C@]5(C)[C@@H](C6=CC(=O)OC6)CC[C@]5(O)[C@@H]4CC[C@]3(O)C2)[C@H](O)[C@H](O)[C@H]1O` [Ouabain], under setting [1], the ex_logS is -1.754.
Consider `Cc1onc(-c2ccccc2)c1C(=O)N[C@@H]1C(=O)N2[C@@H]1SC(C)(C)[C@@H]2C(=O)O` [Oxacillin], for which the ex_logS under setting [1] is on record as -4.4606.
As to `CC(C)NCC1CCc2cc(CO)c([N+](=O)[O-])cc2N1` (stereo not drawn) [Oxamniquine], the ex_logS under setting [2] is on record as -2.532.
Consider `C[C@]12C/C(=C/O)C(=O)C[C@@H]1CC[C@@H]1[C@@H]2CC[C@@]2(C)[C@H]1CC[C@]2(C)O` [Oxymetholone], for which the ex_logS under setting [2] is -4.805.
For the compound `CN1CC[C@]23c4c5ccc(O)c4O[C@H]2C(=O)CC[C@@]3(O)[C@H]1C5` [Oxymorphone], the ex_logS under setting [1] was -1.099.
Consider `CN1CCCN=C1COC(=O)C(O)(c1ccccc1)C1CCCCC1` (stereo not drawn) [Oxyphencyclimine], for which the ex_logS under setting [2] is reported as -4.717.
Take `CN(C)[C@@H]1C(O)=C(C(N)=O)C(=O)[C@@]2(O)C(O)=C3C(=O)c4c(O)cccc4[C@@](C)(O)[C@H]3[C@H](O)[C@@H]12` [Oxytetracycline]: under setting [1], the ex_logS is listed as -3.168.
Regarding `O=Cc1ccc(O)cc1` [P-Hydroxybenzaldehyde], the ex_logS under setting [2] is reported as -1.16.
For `CC1(C)CCC(C)(C)c2cc(Cn3cccn3)c(/C=C/c3ccc(C(=O)O)cc3)cc21` [Palovarotene], the ex_logS under setting [1] is given as -7.016.
In the case of `CCC1(C)OC(=O)N(C)C1=O` (stereo not drawn) [Paramethadione], the ex_logS under setting [2] is on record as -1.272.
Regarding `Nc1nc2c(ncn2CCC(CO)CO)c(=O)[nH]1` [Penciclovir], under setting [1], the ex_logS was -2.173.
For the compound `OC[C@H]1O[C@@H](n2cnc3c2NC=NC[C@H]3O)C[C@@H]1O` [Pentostatin], the ex_logS under setting [1] is on record as -0.9514.
Regarding `C1CCC(C(CC2CCCCN2)C2CCCCC2)CC1` (stereo not drawn) [Perhexiline], under setting [1], the ex_logS was -6.659.
In the case of `NNCCc1ccccc1` [Phenelzine], under setting [1], the ex_logS was -0.6703.
Take `CCC(c1ccccc1)c1c(O)c2ccccc2oc1=O` (stereo not drawn) [Phenprocoumon]: under setting [1], the ex_logS is -4.337.
Regarding `CN1C(=O)CC(c2ccccc2)C1=O` (stereo not drawn) [Phensuximide], the ex_logS under setting [2] was -1.431.
On to `N[C@@H](Cc1ccccc1)C(=O)O` [Phenylalanine], for which the ex_logS under setting [1] is -0.7882.
In the case of `OCCc1ccccc1` [Phenylethyl alcohol], under setting [1], the ex_logS was -0.7406.
On to `CNC(=O)Oc1ccc2c(c1)[C@]1(C)CCN(C)[C@@H]1N2C` [Physostigmine], for which the ex_logS under setting [2] is given as -1.55.
On to `O=c1[nH]c2ccccc2n1C1CCN(CCCC(c2ccc(F)cc2)c2ccc(F)cc2)CC1` [Pimozide], for which the ex_logS under setting [1] was -4.664.
Take `O=C(CCBr)N1CCN(C(=O)CCBr)CC1` [Pipobroman]: the ex_logS under setting [1] is given as -2.155.
